No end group written: not given here.
T1: ACE (from rabbit lung) (Oryctolagus cuniculus, UniProt P12822)
T1 construct: ACE (from rabbit lung) and hippuryl-histidyl-leucine (HHL) were purchased from Sigma Co; purchased Sigma Co., St. Louis, MO, USA; host or cells: rabbit lung (tissue-derived)
T1 sequence (P12822 34-1310): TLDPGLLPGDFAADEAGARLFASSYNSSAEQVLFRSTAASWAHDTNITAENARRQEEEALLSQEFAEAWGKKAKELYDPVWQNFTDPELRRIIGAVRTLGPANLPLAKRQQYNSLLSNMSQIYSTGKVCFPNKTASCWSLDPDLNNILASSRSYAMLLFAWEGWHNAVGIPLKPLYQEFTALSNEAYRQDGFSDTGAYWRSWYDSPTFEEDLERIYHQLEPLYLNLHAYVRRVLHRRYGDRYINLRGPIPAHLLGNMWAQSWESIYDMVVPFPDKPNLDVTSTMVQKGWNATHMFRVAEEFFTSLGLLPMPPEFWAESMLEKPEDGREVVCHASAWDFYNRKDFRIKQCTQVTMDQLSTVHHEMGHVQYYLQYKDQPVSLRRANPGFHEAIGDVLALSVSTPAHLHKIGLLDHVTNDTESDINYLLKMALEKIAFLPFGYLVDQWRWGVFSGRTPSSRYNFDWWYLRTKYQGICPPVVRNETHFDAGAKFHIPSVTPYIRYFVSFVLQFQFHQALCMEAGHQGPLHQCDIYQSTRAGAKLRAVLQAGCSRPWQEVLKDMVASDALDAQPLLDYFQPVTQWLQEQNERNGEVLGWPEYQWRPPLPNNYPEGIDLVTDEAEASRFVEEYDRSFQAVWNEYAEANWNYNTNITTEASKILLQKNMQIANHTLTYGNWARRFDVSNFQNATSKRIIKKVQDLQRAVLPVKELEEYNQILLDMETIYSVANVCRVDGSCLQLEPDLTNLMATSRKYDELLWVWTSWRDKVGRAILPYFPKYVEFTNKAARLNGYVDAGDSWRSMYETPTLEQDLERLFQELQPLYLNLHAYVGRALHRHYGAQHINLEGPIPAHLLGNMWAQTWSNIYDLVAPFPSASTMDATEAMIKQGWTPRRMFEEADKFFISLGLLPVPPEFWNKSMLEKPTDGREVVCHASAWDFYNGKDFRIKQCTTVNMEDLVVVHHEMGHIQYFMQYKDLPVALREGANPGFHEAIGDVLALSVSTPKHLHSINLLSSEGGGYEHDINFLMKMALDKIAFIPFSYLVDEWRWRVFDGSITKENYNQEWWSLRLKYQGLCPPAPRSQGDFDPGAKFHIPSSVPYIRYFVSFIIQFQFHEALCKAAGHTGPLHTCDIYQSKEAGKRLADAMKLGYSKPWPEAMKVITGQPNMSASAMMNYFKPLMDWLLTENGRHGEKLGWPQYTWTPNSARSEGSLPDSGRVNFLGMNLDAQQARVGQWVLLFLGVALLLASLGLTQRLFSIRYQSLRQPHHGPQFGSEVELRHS

T2: angiotensin-converting enzyme (ACE) from rabbit lung (rabbit) (UniProt P12822)
T2 sequence: T1 sequence (P12822 34-1310)


Columns and labels:
[1] = test system: spontaneously hypertensive rats (SHRs); assay: BP measurement after single oral administration in SHR (tail-cuff); format: in vivo, rat; settings: single intragastric administration, 0-8 h
Description: (§1) Thirty 10-week-old male spontaneously hypertensive rats (SHRs) and five normal male rats of the same age were used for the experiment. The rats were placed at 25 °C ± 1 °C, relative humidity of 45–55% and a light/dark cycle for 12 h. SHRs were randomly divided into 6 groups after one week of adaptation, while rats in the normal group (NG) were used as controls. The administration was continued for 28 days.
(§2) Rats in the normal and SHR groups were given 1.0 mL of 0.9% saline per day, while the positive control group was given captopril (10 mg/kg body weight) per day. The ACE inhibitory peptides treatment groups’ low and high doses were fed orally with 5 and 15 mg/kg (based on their body weight) by dissolving the peptides in 1.0 mL of 0.9% normal saline. The rats’ BP was measured by the tail-cuff method. The systolic blood pressure (SBP), diastolic blood pressure (DBP), and heart rate of all rats were measured after a single oral administration (0–8 h) and weekly (0–4 weeks). All measurements were repeated at least three times so the average value could be calculated.

[2] = test system: spontaneously hypertensive rats (SHRs); assay: BP measurement during four weeks of oral administration in SHR (tail-cuff); format: in vivo, rat; settings: daily oral; for SBP compared with the SHRs group after one week of oral administration: peptides 5 and 15 mg/kg, p < 0.01
Description: as §1, §2

[3] = test system: serum ET-1, NO, ACE, Ang II, AGT, ALD; assay: Serum ET-1, NO, ACE, Ang II, AGT and ALD in SHR (ELISA / NO kit); format: in vivo, rat; settings: 28 days oral administration; for serum ACE level of the SHR control group compared with the treated group / serum AGT level of the SHR control group compared with the treated group / serum ALD level of the SHR control group compared with the treated group / serum AngII level of the SHR control group compared with the treated group: p < 0.05
From the text: (§3) The Grain, Oil and Protein Engineering Laboratory of Shaanxi Normal University (Xi’an, China) provided the defatted walnut meal. ACE (from rabbit lung) and hippuryl-histidyl-leucine (HHL) were purchased from Sigma Co., St. Louis, MO, USA. Pepsin (3 × 10^3 U/g) was obtained from Solarbio Science & Technology, Co., Ltd. (Beijing, China). High-performance liquid chromatography grade acetonitrile and trifluoroacetic acid were purchased from Fischer Scientific Co. (Waltham, MA, USA). The enzyme-linked immunosorbent assay kit for the detection of ACE, angiotensinogen (AGT), aldosterone (ALD), and Endothelin-1(ET-1) was purchased from Jiangsu Jingmei Biotechnology Co., Ltd. (YanCheng, China). The enzyme-linked immunosorbent assay kit for the detection of Ang II was obtained from Shanghai Kexing Biotechnology Co., Ltd., (Shanghai, China). and the nitric oxide (NO) detection kit was a product of Nanjing Jiancheng Institute of Biological Engineering (Nanjing, China), and other chemical reagents used in the experiment were of analytical grade.
The upper serum samples were obtained by centrifugation at 3000× g at 4 °C for 10 min after the blood was taken from the abdominal aorta of all rats. The samples were stored at −20 °C, and the serum expression was detected using the ELISA kit (double antibody sandwich enzyme-linked immunosorbent assay).

ACE (from rabbit lung) = biological target: T1, ACE (from rabbit lung); assay: ACE inhibitory activity (HHL substrate, absorbance); format: biochemical; settings: for IC50: calculated by linear regression of the curve, read-out: IC50 on angiotensin converting enzyme (ACE)
From the text: as §3
Following a previous method reported by Zheng et al. (2017), we could determine the ACE inhibitory activity of glutelin-1 hydrolysate, separated fractions, active peptides, and all the other samples with 1.0 mg/mL Captopril as a positive control. The IC50 value (the concentrationof the inhibitory peptide (μM) had to inhibit 50% of the ACE activity) was calculated by linear regression of the curve.
The following formula was used to calculate the ACE inhibition rate (%): ACE inhibition rate(%)=(1-As/Ac)×100 where Ac represents ACE solution’s absorbance without an inhibitor and As represents the mixture containing samples.

pepsin and trypsin = assay: GI digestion stability of the synthesized peptides (pepsin, trypsin), read out as ACE inhibitory activity; format: in vitro ADME; settings: pepsin 1 mg/mL pH 2.0 37 °C 3 h, or trypsin 1.0 mg/mL pH 8.0 37 °C 4 h
Description: We conducted a GI digestion stability analysis of the synthesized peptides according to the method proposed by Khueychai et al. (2018) with slight modifications. Briefly, the peptide solution was incubated with 1 mg/mL of pepsin solution (0.1 M HCl, pH 2.0) at 37 °C for 3 h. Subsequently, the pH value of the mixed solution was adjusted to 8.0 with 1.0 M NaOH, and 1.0 mg/mL of trypsin added and incubated at 37 °C for 4 h. Finally, the ACE inhibitory activity of the reaction solution could be determined after boiling for 10 min, cooling to room temperature, and centrifuging for 15 min at 10,000× g.

[4] = Temperature, pH, metal ion, sugar and salt treatment stability of the synthesized peptides, read out as ACE inhibition rate; format: physicochemical; settings: 1.0 mg/mL peptide; for stability of ACE inhibitory activity with metal ions K+, Ca2+ and Mg2+: 100 μg/mL KCl, CaCl2, MgSO4, 37 °C for 2 h; for stability of ACE inhibitory activity under high-concentration salt conditions / stability of ACE inhibitory activity under low-concentration salt conditions: NaCl solutions 2-12%; for stability of ACE inhibitory activity under high-concentration salt conditions / stability of ACE inhibitory activity under low-concentration salt conditions / stability of ACE inhibitory activity at low glucose concentration: 37 °C for 30 min; for stability of ACE inhibitory activity at low glucose concentration: glucose solutions 2-12%, low concentrations
Description: The effect of temperature, pH, metal ion, sugar, and salt treatments on the stabilities of two synthesized peptides, were determined by incubating 1.0 mg/mL of VERGRRITSV and FVIEPNITPA at 20 °C, 40 °C, 60 °C, 80 °C, and 100 °C for 2 h; 37 °C for 2 h at pH 2, 4, 6, 8, and 10; with 100 μg/mL of KCl, CaCl2, ZnSO4, MgSO4, and FeSO4 solution at 37 °C for 2 h; with glucose solutions of 2%, 4%, 8%, and 12% at 37 °C for 30 min; with NaCl solutions of 2%, 4%, 8%, and 12% at 37 °C for 30 min, respectively. The ACE inhibition rate was measured immediately after incubation.

[5] = biological target: T2, angiotensin-converting enzyme (ACE) from rabbit lung (rabbit)
[6] = captopril 10 mg/kg, peptides low dose 5 mg/kg, decline reached a maximum in the second week

Row | Molecule | IC50 of ACE inhibitory activity (enzyme activity assay, ACE from rabbit lung, substrate HHL) [5] [µM] | SBP compared with the SHRs group after one week of oral administration ([2]; captopril 10 mg/kg) | DBP course during continuous administration [2, 6] | serum ACE level of the SHR control group compared with the treated group ([3]; ELISA) | serum AGT level of the SHR control group compared with the treated group ([3]; ELISA) | serum ALD level of the SHR control group compared with the treated group ([3]; ELISA) | serum AngII level of the SHR control group compared with the treated group ([3]; ELISA) | IC50 (ACE (from rabbit lung)) [µM] | ACE inhibitory activity under pepsin or trypsin digestion (pepsin and trypsin) | stability of ACE inhibitory activity with metal ions K+, Ca2+ and Mg2+ ([4]; read-out ACE inhibition rate) | stability of ACE inhibitory activity under high-concentration salt conditions ([4]; read-out ACE inhibition rate) | stability of ACE inhibitory activity under low-concentration salt conditions ([4]; read-out ACE inhibition rate) | stability of ACE inhibitory activity at low glucose concentration ([4]; read-out ACE inhibition rate) | also measured
1 | C[C@H](CS)C(=O)N1CCC[C@H]1C(=O)O [captopril, reference compound] |  | significantly lower | began to decrease after one week of continuous administration | significantly higher | significantly higher | significantly higher | significantly higher |  |  |  |  |  |  | maximal reduction in SBP ([1]; captopril 10 mg/kg): 29.5 mmHg
2 | FVIEPNITPA [FVIEPNITPA, Phe-Val-Ile-Glu-Pro-Asn-Ile-Thr-Pro-Ala] |  | significantly lower | began to decrease after one week of continuous administration | significantly higher | significantly higher | significantly higher | significantly higher | 6.36 | could still maintain high ACE inhibitory activity | showed stability | less stable | good stability | showed stability | ACE inhibitory activity compared among fractions or with the glutelin-1 hydrolysate (in words) (ACE (from rabbit lung); fractions from Sephadex G-15 (1.0 mg/mL) or RP-HPLC, control glutelin-1 hydrolysate before separation): highest ACE inhibitory activity; maximal reduction in SBP ([1]; high dose 15 mg/kg): 30.4 mmHg; maximal reduction in SBP ([1]; low dose 5 mg/kg): 23.0 mmHg; DBP course during continuous administration ([2]; high dose 15 mg/kg): began to decrease in the second week after administration; serum ET-1 levels ([3]; ELISA, SHR control significantly higher than the other groups (p < 0.01)): low ET-1 levels; serum NO content ([3]; NO detection kit, SHR control significantly lower than treated groups (p < 0.05)): equivalent to that of the captopril group; ACE inhibitory activity after temperature treatment ([4]; 20 °C-60 °C for 2 h, read-out ACE inhibition rate): did not change much; effect of change of pH value on ACE inhibitory activity ([4]; 37 °C for 2 h at pH 2, 4, 6, 8 and 10, read-out ACE inhibition rate): no significant effect; ACE inhibition rate after temperature treatment ([4]; 80 °C for 2 h): above 80%; ACE inhibition rate after temperature treatment ([4]; 100 °C for 2 h): about 70%
3 | Phe-Val-Ile-Glu-Pro-Asn-Ile-Thr-Pro-Ala (…) (peptide) | 6.36 |  |  |  |  |  |  |  |  |  |  |  |  | 
4 | VERGRRITSV [VERGRRITSV, Val-Glu-Arg-Gly-Arg-Arg-Ile-Thr-Ser-Val] |  |  |  |  |  |  |  | 6.82 | could still maintain high ACE inhibitory activity | showed stability | less stable | good stability | showed stability | 
5 | VERGRRITSV [Val-Glu-Arg-Gly-Arg-Arg-Ile-Thr-Ser-Val (…)] | 6.82 |  |  |  |  |  |  |  |  |  |  |  |  | 

From paper PMC8747639, “Novel Angiotensin-Converting Enzyme Inhibitory Peptides Identified from Walnut Glutelin-1 Hydrolysates: Molecular Interaction, Stability, and Antihypertensive Effects” (Nutrients, 2021)
